This note sets out measurements from patent US12581252B2, “Substituted pyrrolo[3,4-b]pyridines as PI3K-α inhibitors” (Relay Therapeutics, Inc., priority 2020, dated 2026).

Where only a bound is given, the exact number is not on record here.

In assay [1] the target is H1047R PIK3CA enzyme (Homo sapiens, UniProt P42336, H1047R). The assay can be described thus: ADP-Glo Biochemical PIK3CA Kinase Assay. Background: In ADP-Glo the light output rises with the ADP produced.
The nature of assay [2]: cells. Particulars: Homo sapiens, MCF-10A, read-out: MCF10A IC50.

As a reminder, the IC50 is the concentration that inhibits the measured activity by half.

Chain of H1047R PIK3CA enzyme (P42336 whole entry H1047R): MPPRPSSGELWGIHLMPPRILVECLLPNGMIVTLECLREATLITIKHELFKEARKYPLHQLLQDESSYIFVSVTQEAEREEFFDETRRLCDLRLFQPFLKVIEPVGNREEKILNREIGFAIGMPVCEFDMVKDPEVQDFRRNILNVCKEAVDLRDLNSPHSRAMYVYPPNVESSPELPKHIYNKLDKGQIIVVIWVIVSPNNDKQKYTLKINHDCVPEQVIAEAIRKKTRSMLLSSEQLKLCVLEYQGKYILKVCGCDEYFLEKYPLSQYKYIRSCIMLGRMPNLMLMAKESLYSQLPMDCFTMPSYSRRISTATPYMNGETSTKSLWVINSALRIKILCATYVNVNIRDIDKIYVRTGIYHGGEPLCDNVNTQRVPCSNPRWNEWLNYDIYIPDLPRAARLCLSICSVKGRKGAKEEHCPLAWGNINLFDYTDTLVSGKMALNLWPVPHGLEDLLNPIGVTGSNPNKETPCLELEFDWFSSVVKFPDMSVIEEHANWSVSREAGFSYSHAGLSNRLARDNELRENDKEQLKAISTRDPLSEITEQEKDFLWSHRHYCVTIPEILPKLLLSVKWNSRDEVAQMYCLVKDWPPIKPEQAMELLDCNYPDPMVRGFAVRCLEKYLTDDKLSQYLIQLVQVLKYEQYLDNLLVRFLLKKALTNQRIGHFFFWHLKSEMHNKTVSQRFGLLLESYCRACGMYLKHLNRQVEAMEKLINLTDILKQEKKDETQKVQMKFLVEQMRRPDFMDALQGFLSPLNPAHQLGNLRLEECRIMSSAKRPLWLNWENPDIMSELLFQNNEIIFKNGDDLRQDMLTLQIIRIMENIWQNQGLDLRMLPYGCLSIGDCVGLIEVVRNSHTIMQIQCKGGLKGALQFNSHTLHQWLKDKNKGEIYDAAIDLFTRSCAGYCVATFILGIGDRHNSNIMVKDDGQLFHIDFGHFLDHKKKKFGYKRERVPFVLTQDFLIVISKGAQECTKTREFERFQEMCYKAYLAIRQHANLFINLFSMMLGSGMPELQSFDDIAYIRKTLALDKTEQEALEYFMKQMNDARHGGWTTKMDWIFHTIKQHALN
Chain of H1047R PIK3CA enzyme (P27986 whole entry partner): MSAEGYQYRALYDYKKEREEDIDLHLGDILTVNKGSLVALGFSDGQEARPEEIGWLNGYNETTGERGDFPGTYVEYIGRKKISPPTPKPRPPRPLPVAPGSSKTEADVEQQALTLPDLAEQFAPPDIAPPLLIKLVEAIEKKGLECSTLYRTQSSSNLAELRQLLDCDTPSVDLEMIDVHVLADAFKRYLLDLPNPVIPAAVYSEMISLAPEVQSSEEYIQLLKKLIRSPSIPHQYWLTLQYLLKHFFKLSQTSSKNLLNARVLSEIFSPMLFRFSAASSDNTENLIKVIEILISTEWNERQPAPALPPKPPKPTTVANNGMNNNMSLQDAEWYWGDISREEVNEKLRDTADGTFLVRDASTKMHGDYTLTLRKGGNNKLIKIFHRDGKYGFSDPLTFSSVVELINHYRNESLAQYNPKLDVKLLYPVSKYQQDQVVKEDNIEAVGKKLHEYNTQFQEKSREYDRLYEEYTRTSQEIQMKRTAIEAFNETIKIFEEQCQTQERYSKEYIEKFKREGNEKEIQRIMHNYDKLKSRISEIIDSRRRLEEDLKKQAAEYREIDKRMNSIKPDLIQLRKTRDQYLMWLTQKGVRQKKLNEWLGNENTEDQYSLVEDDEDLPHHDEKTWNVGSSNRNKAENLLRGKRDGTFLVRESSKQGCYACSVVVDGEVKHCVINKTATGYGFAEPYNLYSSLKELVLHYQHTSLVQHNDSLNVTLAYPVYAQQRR

For `O=C(Nc1cc(-c2cn[nH]c2)nc2c1C(c1cc(F)ccc1Cl)NC2=O)c1cc(F)cc(C(F)(F)F)c1` (stereo not drawn) [Compound I-161], the values for the IC50 in assay [1] and in assay [2] were no more than 100 nM and 1000 to 5000 nM, respectively.

As to `O=C1NC(c2cc(F)ccc2Cl)c2c(NC(=O)N3CCc4cc(F)ccc43)cc(-c3cnn(C(F)F)c3)cc21` (stereo not drawn) [Compound I-2300], the IC50 in assay [1] is no more than 100 nM; in assay [2] it was 1000 to 5000 nM.

As for `O=C1N[C@@H](c2cccc(F)c2F)c2c(NC(=O)c3csc4ccccc34)ccnc21` [Compound I-22], the IC50 in assay [1] lay in the range of 500 to 1000 nM; in assay [2], 1000 to 5000 nM.

Consider `O=C(Nc1cc(NC2=NC(C(F)(F)F)CO2)cc2c1C(c1cc(F)ccc1Cl)NC2=O)c1cc(F)cc(C(F)(F)F)c1` (stereo not drawn) [Compound I-2360], for which the IC50 in assay [1] is no more than 100 nM; in assay [2], 5000 to 10000 nM.

For `N#Cc1ncc(-c2cc(NC(=O)c3cc(F)cc(C(F)(F)F)c3)c3c(c2)C(=O)N[C@@H]3c2cc(F)ccc2Cl)cn1` [Compound I-980], the values for the half-maximal inhibitory concentration (IC50) in assay [1] and in assay [2] were no more than 100 nM and less than 1000 nM, respectively.

Take `N#CC1(CNc2cc(NC(=O)c3cc(F)cc(C(F)(F)F)c3)c3c(c2)C(=O)N[C@H]3c2cc(F)ccc2Cl)CC1` [Compound I-868]: the figures for the half-maximal inhibitory concentration (IC50) in assay [1] and in assay [2] were no more than 100 nM and less than 1000 nM, respectively.

Regarding `O=C(Nc1cc(-c2ccc3ncnn3c2)cc2c1[C@H](c1cc(F)ccc1C(F)F)NC2=O)c1cc(F)cc(C(F)(F)F)c1` (stereo in doubt) [Compound I-1056], the values for the IC50 in assay [1] and in assay [2] were no more than 100 nM and less than 1000 nM, respectively.

Take `O=C1N[C@H](c2cc(F)ccc2Cl)c2c(NC(=O)N3C[C@](O)(C(F)(F)F)c4cc(F)ccc43)ccc(Cl)c21` (single isomer, unassigned) [Compound I-2618]: the results for the half-inhibitory concentration (IC50) in assay [1] and in assay [2] were no more than 100 nM and less than 1000 nM, respectively.

Regarding `Cn1nccc1-c1cc(NC(=O)c2cc(F)cc(C(F)(F)F)c2)c2c(c1)C(=O)NC2c1cc(F)ccc1Cl` (stereo not drawn) [Compound I-906], the values for the IC50 in assay [1] and in assay [2] were no more than 100 nM and less than 1000 nM, respectively.

Regarding `Cn1cc(Nc2cc(NC(=O)c3cc(F)cc(C(F)(F)F)c3)c3c(c2)C(=O)N[C@H]3c2cc(F)ccc2Cl)cn1` (single isomer, unassigned) [Compound I-997], the IC50 in assay [1] was no more than 100 nM; in assay [2], less than 1000 nM.

On to `O=C(Nc1cc(-c2ccc3ncnn3c2)cc2c1[C@@H](c1cc(Cl)ccc1Cl)NC2=O)c1cc(F)cc(C(F)(F)F)c1` [Compound I-1054], for which the values for the concentration for half-maximal inhibition (IC50) in assay [1] and in assay [2] were no more than 100 nM and less than 1000 nM, respectively.

For the compound `O=C1NC(c2cc(F)ccc2Cl)c2c(Nc3nccc4c(Cl)cc(F)cc34)cc(Br)cc21` (stereo not drawn) [Compound I-959], the IC50 is 100 to 500 nM in assay [1] and less than 1000 nM in assay [2].

`O=C(Nc1cc(-c2cn3ncnc3cn2)cc2c1[C@H](c1cc(F)ccc1C(F)F)NC2=O)c1cc(F)cc(Cl)c1` (single isomer, unassigned) [Compound I-2259]: the IC50 is no more than 100 nM in assay [1] and less than 1000 nM in assay [2].

Turning to `O=C(Nc1cc(-c2ccc3ncncc3c2)cc2c1C(c1cc(F)ccc1Cl)NC2=O)c1cc(F)cc(C(F)(F)F)c1` (stereo not drawn) [Compound I-1093], the values for the IC50 in assay [1] and in assay [2] were no more than 100 nM and less than 1000 nM, respectively.

`Cc1ccccc1[C@@H]1NC(=O)c2cccc(NC(=O)c3csc4ccccc34)c21` [Compound I-5]: the IC50 was no more than 100 nM in assay [1] and 1000 to 5000 nM in assay [2].

`Cc1cc(-c2cc(NC(=O)c3cc(F)cc(C(F)(F)F)c3)c3c(c2)C(=O)NC3c2cc(F)ccc2Cl)cc2cnn(C)c12` (stereo not drawn) [Compound I-927]: the IC50 in assay [1] is 100 to 500 nM; in assay [2], 5000 to 10000 nM.

In the case of `O=C(Nc1cc(Br)cc2c1C(c1cc(F)ccc1C(F)(F)F)NC2=O)c1cc(F)cc(C(F)(F)F)c1` (stereo not drawn) [Compound I-1014], the IC50 in assay [1] was no more than 100 nM; in assay [2], less than 1000 nM.

Consider `COc1ccc(CNCc2cc(NC(=O)c3nsc4ccccc34)c3c(c2)C(=O)NC3c2cc(F)ccc2Cl)cc1` (stereo not drawn) [Compound I-155], for which the concentration for half-maximal inhibition (IC50) in assay [1] is no more than 100 nM; in assay [2], 1000 to 5000 nM.

In the case of `O=C1N[C@@H](c2cc(F)ccc2Cl)c2c(NC(=O)c3csc4ccccc34)cc(-c3ccc4ncnn4c3)cc21` [Compound I-1684], the IC50 is no more than 100 nM in assay [1] and less than 1000 nM in assay [2].

Take `O=C(Nc1cc(-c2cn[nH]c2)cc2c1C(c1cc(F)ccc1Cl)NC2=O)c1cc(F)cc(C(F)(F)F)c1` (stereo not drawn) [Compound I-878]: the concentration for half-maximal inhibition (IC50) was no more than 100 nM in assay [1] and less than 1000 nM in assay [2].

Turning to `O=C1NC(c2cc(F)ccc2Cl)c2c(NC(=O)N3CC(O)c4ccc(Cl)cc43)cccc21` (mixture of isomers) [Compound I-2464], the IC50 in assay [1] was no more than 100 nM; in assay [2], 5000 to 10000 nM.

In the case of `O=C(Nc1cc(-c2ncc[nH]2)cc2c1[C@H](c1cc(F)ccc1Cl)NC2=O)c1cc(F)cc(C(F)(F)F)c1` [Compound I-919], the IC50 in assay [1] was no more than 100 nM; in assay [2], less than 1000 nM.

For the compound `O=C1NC(c2cc(F)ccc2Cl)c2c(NC(=O)N3CCc4ccccc43)cccc21` (stereo not drawn) [Compound I-2479], the IC50 is no more than 100 nM in assay [1] and 1000 to 5000 nM in assay [2].

For `Cn1cc(-c2cc(NC(=O)c3cc(F)cc(C(F)(F)F)c3)c3c(c2)C(=O)NC3c2cc(F)ccc2Cl)cn1` (stereo not drawn) [Compound I-811], the half-inhibitory concentration (IC50) was no more than 100 nM in assay [1] and less than 1000 nM in assay [2].

For `CNc1cc(NC(=O)N2C[C@](O)(C(F)(F)F)c3cc(F)ccc32)c2c(c1C#N)C(=O)N[C@@H]2c1cc(F)ccc1Cl` (single isomer, unassigned) [Compound I-2609], the 50% inhibitory concentration (IC50) in assay [1] is no more than 100 nM; in assay [2], less than 1000 nM.

Regarding `Nc1cc(NC(=O)c2cc(F)cc(C(F)(F)F)c2)c2c(c1)C(=O)NC2c1cc(F)ccc1Cl` (stereo not drawn) [Compound I-125], the IC50 in assay [1] was no more than 100 nM; in assay [2] it was less than 1000 nM.

With `Cc1ccccc1C1NC(=O)c2cc(N)cc(NC(=O)c3nsc4ccccc34)c21` (stereo not drawn) [Compound I-50, N-[6-Amino-3-(2-methylphenyl)-1-oxo-2,3-dihydro-1H-isoindol-4-yl]-1,2-benzothiazole-3-carboxamide], the 50% inhibitory concentration (IC50) was no more than 100 nM in assay [1] and less than 1000 nM in assay [2].

With `O=C(Nc1cc(-c2cn3ncnc3cn2)cc2c1[C@H](c1cc(F)ccc1Cl)NC2=O)c1cc(F)cc(C(F)(F)F)c1` [Compound I-1441], the half-inhibitory concentration (IC50) in assay [1] is no more than 100 nM; in assay [2], less than 1000 nM.

As for `O=C(Nc1cc(-c2cnn(C3COC3)c2)cc2c1C(c1cc(F)ccc1Cl)NC2=O)c1cc(F)cc(C(F)(F)F)c1` (stereo not drawn) [Compound I-904], the IC50 in assay [1] is no more than 100 nM; in assay [2], less than 1000 nM.

Turning to `C[C@@]1(C(=O)Nc2cc(Br)cc3c2[C@H](c2cc(F)ccc2Cl)NC3=O)CCC[C@H](C(F)(F)F)C1` (single isomer, unassigned) [Compound I-2262], the IC50 in assay [1] was in the range of 100 to 500 nM; in assay [2] it was 1000 to 5000 nM.

For `O=C(Nc1cc(-c2ccc3ncccc3c2)cc2c1[C@H](c1cc(F)ccc1Cl)NC2=O)c1cc(F)cc(C(F)(F)F)c1` [Compound I-894], the IC50 in assay [1] was no more than 100 nM; in assay [2], less than 1000 nM.

Turning to `Cc1[nH]ncc1Nc1cc(NC(=O)c2cc(F)cc(C(F)(F)F)c2)c2c(c1)C(=O)NC2c1cc(F)ccc1Cl` (stereo not drawn) [Compound I-1017], the IC50 was no more than 100 nM in assay [1] and less than 1000 nM in assay [2].

As to `CC(=O)Nc1cc(NC(=O)c2csc3ccccc23)c2c(c1)C(=O)NC2c1ccccc1C` (stereo not drawn) [Compound I-52], the IC50 in assay [1] was no more than 100 nM; in assay [2], less than 1000 nM.
